Literature values, collected in patent publication US12552830B2, “Steroidal compound derivatives as therapeutic agents” (priority 2020, dated 2026).
“Also recorded” adds a separate entry of the source.

Legend:
[1] = system: human umbilical endothelial cell (HUVEC)
[2] = system: transactivator of transcription (Tat)
HIV = conditions: latent CD4+T cells, in vitro

Compound	IC50 ([1]; HUVECs, read-out: IC50, selective anti-proliferative activity of HUVECs) [nM]	selectivity for HUVECs over other cell lines ([1]; over NHDF, KB3-1, K562 and Neuro2A cells) [fold]	inhibition of Tat [2]	viral reactivation of HIV (HIV)
cortistatin A	1.8	3000	–	–
CN(C)[C@H]1C[C@@]23CC[C@@]4(O2)C(=CC[C@]2(C)C(c5ccc6ccncc6c5)=CCC24)C=C3[C@@H](O)[C@@H]1O (stereo partly shown) [dCA, didehydro-cortistatin A]	–	–	most potent inhibitor of transactivator of transcription (Tat)	prevents viral reactivation of HIV in vitro; also recorded: prevents viral reactivation in latent CD4+T cells in vitro
